Experimental data published in US8354403B2, “Pyrrolidine derived beta 3 adrenergic receptor agonists” (Merck Sharp & Dohme Corp., priority 2009, dated 2013).
Like-named read-outs stand apart in the source and are kept apart here.

Target: T1, human β3 adrenergic receptor (Homo sapiens, UniProt P13945)
T1 construct: expressed in transfected cells; host or cells: Chinese hamster ovary (CHO) cells, stably transfected
Test: Beta-3 agonist in vitro functional assay: cAMP production (LANCE TR-FRET) in CHO cells stably transfected with the cloned β3 receptor
Format: cell-based
In short: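 CHO cells stably expressing the cloned receptor, in HEPES-buffered HBSS with BSA and 0.6 mM IBMX, 6,000 cells/well, exposed to compound for 30 min at RT. cAMP read by LANCE TR-FRET against a cAMP standard curve. Isoproterenol defines maximal stimulation.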

[1] = Table 5, cAMP, CHO cells, read-out: Human β3 agonist functional activity
[2] = given as a range, cAMP, CHO cells, read-out: human β3 functional activity
[3] = Table 7, cAMP, CHO cells, ranges as given for Tables 6 and 7, read-out: Human β3 agonist functional activity
[4] = Table 8, Beta-3 agonist in vitro functional assay, read-out: Human β3 agonist functional activity

T1 sequence (P13945 whole entry): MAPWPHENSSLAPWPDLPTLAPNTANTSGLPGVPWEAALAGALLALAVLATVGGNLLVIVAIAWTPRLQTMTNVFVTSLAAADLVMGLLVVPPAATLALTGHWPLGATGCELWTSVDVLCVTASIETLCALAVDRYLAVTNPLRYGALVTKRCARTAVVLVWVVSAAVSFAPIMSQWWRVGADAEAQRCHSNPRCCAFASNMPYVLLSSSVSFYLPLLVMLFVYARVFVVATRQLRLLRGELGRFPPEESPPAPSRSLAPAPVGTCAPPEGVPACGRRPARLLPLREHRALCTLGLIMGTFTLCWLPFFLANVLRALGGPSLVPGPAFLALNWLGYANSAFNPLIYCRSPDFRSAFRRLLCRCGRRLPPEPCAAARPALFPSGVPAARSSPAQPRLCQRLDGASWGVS

**Q.** Cc1cncnc1OC1CCN(C(=O)c2ccc(C[C@@H]3CC[C@H]([C@H](O)c4ccccc4)N3)cc2)CC1 [Example 153] was tested. Which EC50 [1] did it give?
**A.** 0.1 to 0.999 µM

**Q.** For Cc1nccc(OC2CCN(C(=O)c3ccc(C[C@@H]4CC[C@H]([C@H](O)c5ccccc5)N4)cc3)CC2)n1 [Example 154], which EC50 [1] is on record?
**A.** 0.1 to 0.999 µM

**Q.** O=C(c1ccc(C[C@@H]2CC[C@H]([C@H](O)c3ccccc3)N2)cc1)N1CCC(Oc2cncc(Cl)n2)CC1 [Example 155] was tested. Which EC50 [1] did it give?
**A.** 0.1 to 0.999 µM

**Q.** For CS(=O)(=O)c1ccccc1OC1CCN(C(=O)c2ccc(C[C@@H]3CC[C@H]([C@H](O)c4ccccc4)N3)cc2)CC1 [Example 156], which EC50 [1] is on record?
**A.** 0.01 to 0.0999 µM

**Q.** With CNC(=O)c1ccccc1OC1CCN(C(=O)c2ccc(C[C@@H]3CC[C@H]([C@H](O)c4ccccc4)N3)cc2)CC1 [Example 157] as the compound, how does the EC50 [1] read?
**A.** 0.1 to 0.999 µM

**Q.** How did the EC50 [1] turn out when CN(C)C(=O)c1cc(OC2CCN(C(=O)c3ccc(C[C@@H]4CC[C@H]([C@H](O)c5ccccc5)N4)cc3)CC2)no1 [Example 158] was run?
**A.** 0.1 to 0.999 µM

**Q.** Which EC50 [1] does the source give for COC(=O)c1cc(OC2CCN(C(=O)c3ccc(C[C@@H]4CC[C@H]([C@H](O)c5ccccc5)N4)cc3)CC2)no1 [Example 159] here?
**A.** 0.1 to 0.999 µM

**Q.** How did the EC50 [1] turn out when O=C(O)c1cc(OC2CCN(C(=O)c3ccc(C[C@@H]4CC[C@H]([C@H](O)c5ccccc5)N4)cc3)CC2)no1 [Example 160] was run?
**A.** 0.1 to 0.999 µM

**Q.** Which EC50 [1] does the source give for O=C(c1ccc(C[C@@H]2CC[C@H]([C@H](O)c3ccccc3)N2)cc1)N1CCC(COc2cnccn2)CC1 [Example 161] here?
**A.** 0.01 to 0.0999 µM

**Q.** How did the EC50 [1] turn out when O=C(c1ccc(C[C@@H]2CC[C@H]([C@H](O)c3ccccc3)N2)cc1)N1CCC(COc2ccncn2)CC1 [Example 162] was run?
**A.** 0.01 to 0.0999 µM

**Q.** With O=C(c1ccc(C[C@@H]2CC[C@H]([C@H](O)c3ccccc3)N2)cc1)N1CCC(OCc2ccccn2)CC1 [Example 163] as the compound, how does the EC50 [1] read?
**A.** 0.1 to 0.999 µM

**Q.** CC(c1ccccn1)C1CCN(C(=O)c2ccc(C[C@@H]3CC[C@H]([C@H](O)c4ccccc4)N3)cc2)CC1 (stereo partly drawn) [Example 164] was tested. Which EC50 [1] did it give?
**A.** 0.01 to 0.0999 µM

**Q.** Which EC50 [1] does the source give for CC(C1CCN(C(=O)c2ccc(C[C@@H]3CC[C@H]([C@H](O)c4ccccc4)N3)cc2)CC1)n1ncccc1=O (stereo partly drawn) [Example 165] here?
**A.** 0.01 to 0.0999 µM

**Q.** CC(C1CCN(C(=O)c2ccc(C[C@@H]3CC[C@H]([C@H](O)c4ccccc4)N3)cc2)CC1)n1cnccc1=O (stereo partly drawn) [Example 166] was tested. Which EC50 [1] did it give?
**A.** 0.01 to 0.0999 µM

**Q.** For CC(Oc1ccncn1)C1CCN(C(=O)c2ccc(C[C@@H]3CC[C@H]([C@H](O)c4ccccc4)N3)cc2)CC1 (stereo partly drawn) [Example 167], which EC50 [1] is on record?
**A.** 0.1 to 0.999 µM

**Q.** O=C(c1ccc(C[C@@H]2CC[C@H]([C@H](O)c3ccccc3)N2)cc1)N1CCC(C(O)c2ccccn2)CC1 (stereo partly drawn) [Example 168] was tested. Which EC50 [1] did it give?
**A.** 0.01 to 0.0999 µM

**Q.** How did the EC50 [2] turn out when O=C(c1ccc(C[C@@H]2CC[C@H]([C@H](O)c3ccccc3)N2)cc1)N1C[C@@H]2C(n3cnnn3)[C@@H]2C1 (stereo partly drawn) [Example 169, (R)-phenyl[(2R,5S)-5-(4-{[(1R,5S,6r)-6-(1H-tetraol-1-yl)-3-azabicyclo[3.1.0]hex-3yl]carbonyl}benzyl)pyrrolidine-2-yl]methanol] was run?
**A.** 0.001 to 0.0099 µM

**Q.** O=C(c1ccc(C[C@@H]2CC[C@H]([C@H](O)c3ccccc3)N2)cc1)N1C[C@@H]2[C@H](C1)[C@H]2c1nnco1 [Example 170] was tested. Which EC50 [2] did it give?
**A.** 0.001 to 0.0099 µM

**Q.** O=C(OCc1ccccc1)C1C2CN(C(=O)c3ccc(C[C@@H]4CC[C@H]([C@H](O)c5ccccc5)N4)cc3)CC21 (stereo partly drawn) [Example 229] was tested. Which EC50 [3] did it give?
**A.** < 0.001 µM

**Q.** For CCOC(=O)C1C2CN(C(=O)c3ccc(CC4CCC(C(O)c5ccccc5)N4)cc3)CC21 (stereo not drawn) [Example 230], which EC50 [3] is on record?
**A.** 0.01 to 0.0999 µM

**Q.** For O=C(O)C1C2CN(C(=O)c3ccc(CC4CCC(C(O)c5ccccc5)N4)cc3)CC21 (stereo not drawn) [Example 231], which EC50 [3] is on record?
**A.** 0.1 to 0.999 µM

**Q.** Which EC50 [3] does the source give for O=C(c1ccc(CC2CCC(C(O)c3ccccc3)N2)cc1)N1CC2C(C1)C2Cn1nccn1 (stereo not drawn) [Example 232] here?
**A.** 0.1 to 0.999 µM

**Q.** For O=C(c1ccc(CC2CCC(C(O)c3ccccc3)N2)cc1)N1CC2C(C1)C2Cn1ccnn1 (stereo not drawn) [Example 233], which EC50 [3] is on record?
**A.** 0.1 to 0.999 µM

**Q.** Which EC50 [3] does the source give for O=C(c1ncco1)C1C2CN(C(=O)c3ccc(C[C@@H]4CC[C@H]([C@H](O)c5ccccc5)N4)cc3)CC21 (stereo partly drawn) [Example 234] here?
**A.** 0.01 to 0.0999 µM

**Q.** N#CC1(c2cnccn2)C2CN(C(=O)c3ccc(C[C@@H]4CC[C@H]([C@H](O)c5ccccc5)N4)cc3)CC21 (stereo partly drawn) [Example 235] was tested. Which EC50 [3] did it give?
**A.** 0.01 to 0.0999 µM

**Q.** With N#CC1(c2cccnn2)C2CN(C(=O)c3ccc(C[C@@H]4CC[C@H]([C@H](O)c5ccccc5)N4)cc3)CC21 (stereo partly drawn) [Example 236] as the compound, how does the EC50 [3] read?
**A.** 0.01 to 0.0999 µM

**Q.** N#CC1(c2ncccn2)C2CN(C(=O)c3ccc(C[C@@H]4CC[C@H]([C@H](O)c5ccccc5)N4)cc3)CC21 (stereo partly drawn) [Example 237] was tested. Which EC50 [3] did it give?
**A.** 0.01 to 0.0999 µM

**Q.** For N#CC1(c2ccccn2)C2CN(C(=O)c3ccc(C[C@@H]4CC[C@H]([C@H](O)c5ccccc5)N4)cc3)CC21 (stereo partly drawn) [Example 238], which EC50 [3] is on record?
**A.** 0.01 to 0.0999 µM

**Q.** O=C(c1ccc(C[C@@H]2CC[C@H]([C@H](O)c3ccccc3)N2)cc1)N1CCC2(CCOC2=O)CC1 [Example 239, 8-[4-({(2S,5R)-5-[(R)-hydroxy(phenyl)methyl]pyrrolidin-2-yl}methyl)benzoyl]-2-oxa-8-azaspiro[4.5]decan-1-one] was tested. Which EC50 [2] did it give?
**A.** 0.001 to 0.0099 µM

**Q.** Which EC50 [4] does the source give for O=C(c1ccc(C[C@@H]2CC[C@H]([C@H](O)c3ccccc3)N2)cc1)N1CCC(F)(S(=O)(=O)c2ccc(F)cc2)CC1 [Example 240] here?
**A.** 0.01 to 0.0999 µM

**Q.** How did the EC50 [4] turn out when O=C(c1ccc(C[C@@H]2CC[C@H]([C@H](O)c3ccccc3)N2)cc1)N1CCC(C(=O)O)(c2ccccc2)CC1 [Example 241] was run?
**A.** 0.1 to 0.999 µM

**Q.** O=C(c1ccc(C[C@@H]2CC[C@H]([C@H](O)c3ccccc3)N2)cc1)N1CCC(c2ccccc2)(c2nnn[nH]2)CC1 [Example 242] was tested. Which EC50 [4] did it give?
**A.** 0.01 to 0.0999 µM

**Q.** Which EC50 [4] does the source give for CC1(c2nn[nH]n2)CCN(C(=O)c2ccc(C[C@@H]3CC[C@H]([C@H](O)c4ccccc4)N3)cc2)CC1 [Example 243] here?
**A.** 0.1 to 0.999 µM

**Q.** With Cn1nnnc1C1(C)CCN(C(=O)c2ccc(C[C@@H]3CC[C@H]([C@H](O)c4ccccc4)N3)cc2)CC1 [Example 244] as the compound, how does the EC50 [4] read?
**A.** 0.1 to 0.999 µM

**Q.** Which EC50 [4] does the source give for O=C(c1ccc(C[C@@H]2CC[C@H]([C@H](O)c3ccccc3)N2)cc1)N1CCC(O)(Cc2ccccc2)CC1 [Example 245] here?
**A.** 0.01 to 0.0999 µM

**Q.** Cc1ccc(CC2(O)CCN(C(=O)c3ccc(C[C@@H]4CC[C@H]([C@H](O)c5ccccc5)N4)cc3)CC2)cc1 [Example 246] was tested. Which EC50 [4] did it give?
**A.** 0.01 to 0.0999 µM

**Q.** For COc1ccc(C2(CNC(=O)C(C)(C)C)CCN(C(=O)c3ccc(C[C@@H]4CC[C@H]([C@H](O)c5cccnc5)N4)cc3)CC2)cc1 [Example 247], which EC50 [4] is on record?
**A.** 0.1 to 0.999 µM

**Q.** CCCN(CCC)C(=O)CC1(c2ccccc2)CCN(C(=O)c2ccc(C[C@@H]3CC[C@H]([C@H](O)c4ccccc4)N3)cc2)CC1 [Example 248] was tested. Which EC50 [4] did it give?
**A.** 0.1 to 0.999 µM

**Q.** For Cc1nnc(C2(C3CCCCC3)CCN(C(=O)c3ccc(C[C@@H]4CC[C@H]([C@H](O)c5ccccc5)N4)cc3)CC2)o1 [Example 249], which EC50 [4] is on record?
**A.** 0.1 to 0.999 µM

**Q.** Which EC50 [4] does the source give for O=C(c1ccc(C[C@@H]2CC[C@H]([C@H](O)c3ccccc3)N2)cc1)N1CCC2(CCNC2=O)CC1 [Example 250] here?
**A.** 0.01 to 0.0999 µM

**Q.** With CN1CCC2(CCN(C(=O)c3ccc(C[C@@H]4CC[C@H]([C@H](O)c5ccccc5)N4)cc3)CC2)C1=O [Example 251] as the compound, how does the EC50 [4] read?
**A.** 0.1 to 0.999 µM

**Q.** For CCN1CCC2(CCN(C(=O)c3ccc(C[C@@H]4CC[C@H]([C@H](O)c5ccccc5)N4)cc3)CC2)C1=O [Example 252], which EC50 [4] is on record?
**A.** 0.1 to 0.999 µM

**Q.** How did the EC50 [4] turn out when O=C(c1ccc(C[C@@H]2CC[C@H]([C@H](O)c3ccccc3)N2)cc1)N1CCC2(CC1)CCN(c1ccccc1)C2=O [Example 254] was run?
**A.** 0.1 to 0.999 µM

**Q.** For O=C(c1ccc(C[C@@H]2CC[C@H]([C@H](O)c3ccccc3)N2)cc1)N1CCC2(CC1)CCN(Cc1ccccc1)C2=O [Example 255], which EC50 [4] is on record?
**A.** 0.001 to 0.0099 µM

**Q.** O=C(c1ccc(C[C@@H]2CC[C@H]([C@H](O)c3ccccc3)N2)cc1)N1CCC2(CCCNC2=O)CC1 [Example 256] was tested. Which EC50 [4] did it give?
**A.** 0.1 to 0.999 µM
